Measured values: article PMC10666548, “Identification of the bacterial metabolite aerugine as potential trigger of human dopaminergic neurodegeneration” (Environment international, 2023)
Entries after “also recorded” stand apart in the source; their conditions may differ.

What was measured:
[1] = test system: aerugine (10 μM) cytotoxicity in LUHMES cultures (d6); assay: Modulation of aerugine-induced neurodegeneration by mechanistic inhibitors; assay type: cell-based, human; settings: 24 h; for prevention of aerugine-induced cell death (viability) / maximal prevention of aerugine neurotoxicity: inhibitor 15 min prior to 10 μM aerugine
Procedure: (§1) For toxicity assessment of mature LUHMES neurons, precursor cells were pre-differentiated for 2 days in cell culture flasks pre-coated as described above and differentiation medium. Then, 45′000 cells per well were seeded in differentiation medium into standard 96-well plates pre-coated as described above. They were incubated at 37 °C and 5% CO2 for 4 days before compound treatment. At this time, cells were >99% post-mitotic and had established an extensive neurite network ([Scholz et al., 2011]) The cell viability was assessed via the Calcein/Hoechst readout, the LDH assay and the resazurin reduction assay.
(§2) Neurite area (NA) and viability (V) were assessed as described previously ([Stiegler et al., 2011]). In brief, cells were stained with 1 μM calcein-AM and 1 μg/ml H-33342 for 30 min at 37 °C and 5% CO2. Image acquisition was performed using an Array-Scan VTI HCS Reader (Cellomics, PA, USA) equipped with a Hamamatsu ORCA-ER camera. 10 fields per well were imaged with 2 channels at 20x magnification (2×2 pixel binning). Excitation/emission wavelengths of 365 ± 50/535 ± 45 nm were used for Hoechst detection in channel 1 and 474 ± 40/535 ± 45 nm were used for calcein detection in channel 2.
Fig. 4. Modulation of aerugine-induced neurodegeneration by mechanistic inhibitors. LUHMES cultures (d6) were used under standard conditions to assess the cytotoxicity of aerugine (10 μM) in the presence of various agents known to interfere with cell death pathways. A Treatment scheme: the respective inhibitors were applied 15 min prior to aerugine treatment (10 μM), and the viability was determined by high-content imaging after 24 h. B Inhibitors were used at different concentrations, as indicated. The main biochemical activity of each agent is indicated in brackets. Data are means ± SEM of at least three biological replicates with 3 technical replicates each. DFP = deferiprone; DFO = deferoxamine; qVD = caspase inhibitor; RIPK = receptor-interacting serine/threonine-protein kinase. For statistical analysis, the lowest concentration of inhibitor that produced the maximal protective effect (red) was compared to the treatment with aerugine alone using a two-tailed t-test (*: p = 0.01). C Exemplary pictures of LUHMES cultures after 24 h treatment: negative control (=DMSO), positive control (=10 μM aerugine), DFP (=20 μM DFP + 10 μM aerugine) and qVD (=5 μM qVD + 10 μM aerugine). Arrows indicate cells with a broken cell membrane (calcein-negative) and condensed nuclei (small H-33342-positive area). Arrow heads indicate disintegrating neurites (chains of calcein-positive blebs).

[2] = test system: human dopaminergic neurons (LUHMES cells); assay: Cytotoxicity to mature (d6) LUHMES neurons, calcein-AM & H-33342 high content imaging; assay type: cell-based; settings: d6 LUHMES; for cytotoxicity to DAergic neurons (viability): 24 h (24 h and 48 h for purified compounds)
Procedure: as §1, §2
Nuclei were identified in channel 1 depending on intensity, area, size and shape. Their outlines were expanded by 3.2 μm to define a virtual cell soma area (VCSA), which was bigger than the average cell soma to prevent false positive NAs. All calcein-positive pixels were defined as viable cellular structures (VCSs). The NA was automatically calculated by excluding the VCSAs from the VCSs. Furthermore all nuclei co-localizing with VCSs were defined as alive.

| SMILES | prevention of aerugine-induced cell death (viability) [1] | cytotoxicity to DAergic neurons (viability) [2] | maximal prevention of aerugine neurotoxicity [1] | other results |
| --- | --- | --- | --- | --- |
| N[C@@H](Cc1ccc(O)c(I)c1)C(=O)O [3-iodo-tyrosine] | had no effect at all |  |  |  |
| O=C(O)C1CSC(c2ccccc2O)=N1 (stereo not shown) [DHAA, Dihydroaeruginoic acid, reference compound] |  | all toxicity was lost |  |  |
| O=Cc1csc(-c2ccccc2O)n1 [IQS, aeruginealdehyde] |  | about equipotent with aeruginol |  | concentration range killing DAergic neurons ([2]; within 24 h): 10 to 25 µM |
| OCc1csc(-c2ccccc2O)n1 [aeruginol] |  | cytotoxic to DAergic neurons in a time- and concentration-dependent manner |  |  |
| N[C@@H](CS)C(=O)O [cysteine] |  |  | 60–90% |  |
| O=CC1CSC(c2ccccc2O)=N1 (stereo not shown) [dhIQS, dihydro-aeruginealdehyde] |  | all toxicity was lost |  |  |
| O=c1c2ccccc2[se]n1-c1ccccc1 [ebselen] |  |  | 60–90% |  |
| CCOC(=O)c1ccc(NC2CCCCC2)c(N)c1 [ferrostatin] |  |  | 60–90% |  |
| CN1C(=O)C(Cc2c[nH]c3ccccc23)NC1=S (stereo not shown) [necrostatin-1] | only slightly attenuated cell death |  |  |  |
| CC(C)[C@H](NC(=O)c1ccc2ccccc2n1)C(=O)N[C@@H](CC(=O)O)C(=O)COc1c(F)cccc1F [qVD] | completely prevented; also recorded: prevented cell death |  |  | neurite structure in presence of inhibitor ([1]; 10 μM aerugine): damage to the neurites still occurred and lost; optimal concentrations for prevention of cell death ([1]; 10 μM aerugine): 2 to 4 µM |
